From paper PMC6429507, “Triterpene-Based Carboxamides Act as Good Inhibitors of Butyrylcholinesterase” (Molecules, 2019)
Where a name gives a salt, the structure may show the parent alone. Read-outs that look alike come from different tables or passages of the source.

Tests used:
[1] = biological target: acetylcholinesterase (AChE, electric eel) (Electrophorus electricus, UniProt O42275); conditions: for Grade of inhibition in% AChE / Ki' (uncompetitive inhibition) / Ki: mean ± SE; for Type of Inhibition / Ki' (uncompetitive inhibition) / Ki: AChE, electric eel; for Ki: read-out: Ki (competitive inhibition)
Excerpt: (§1) In this study, carboxamides with different triterpenoic backbones (ursolic, oleanolic, maslinic, betulinic, and platanic acids), and various amine residues (Scheme 1), were investigated.
(§2) A TECAN SpectraFluorPlus working in the kinetic mode and measuring the absorbance at λ = 415 nm was used for the enzymatic studies. Acetylcholinesterase (from Electrophorus electricus), 5,5′-dithiobis-(2-nitrobenzoic acid) (DTNB) and acetylthiocholine iodide were purchased from Sigma. Butyrylcholinesterase (from equine serum) was purchased from Fluka. Preparation of the solutions, assay procedure, as well as molecular modeling conditions can be found in the Supplementary Materials.
(§3) 3.1 Preparation of the solutions
(§4) Preparation of 50 mM Tris-HCl buffer solutions: Tris(hydroxymethyl)-aminomethane (606 mg) was dissolved in bidestilled water (100 mL) and adjusted with HCl to a pH of 8.0 ± 0.1. Buffers were freshly prepared and stored in the refrigerator. AChE solution 2.005 U/mL: the enzyme (271 U/mg, 0.037 mg) was dissolved in freshly prepared buffer pH 8.0 (5 mL) containing NaN3 (0.98 mg). BChE solution 2.040 U/mL: the enzyme (7.54 U/mg, 1.353 mg) was dissolved in freshly prepared buffer pH 8.0 (5 mL) containing NaN3 (0.98 mg). DTNB solution 3 mM: DTNB (23.8 mg) was dissolved in freshly prepared buffer pH 8.0 (20 mL) containing NaCl (116.8 mg) and MgCl2 (38.0 mg). ATChI solution 15 mM:
(§5) ATChI (43.4 mg) was dissolved in bidestilled water (10 mL). All solutions were stored in Eppendorf caps in the refrigerator or in the freezer, if necessary. The pure compounds were […]
(§6) dissolved in bidistilled water. The final concentrations for the enzymatic assay were obtained by diluting the stock solution with bidistilled water.
(§7) A mixture of the DTNB solution (125 µL), enzyme solution (25 µL) and compounds solutions (25 µL, 3 different concentrations and once blank water) was prepared and incubated at 30 °C for 20 min. The substrate (25 µL, 4 different concentrations) was added to start the enzymatic reaction. The absorbance data (l = 415 nm) was recorded under a controlled temperature of 30 °C for 30 min at 1 min intervals. The substrate concentrations in the test were as follows: […]
(§8) determined as the quotient of the slopes (compound divided by blank) of the linear ranges.
(§9) The used substrate concentration was 0.625 mM. The absorbance data was recorded under a controlled temperature of 30 °C for 10 min.

[2] = biological target: T1, butyrylcholinesterase (BChE, equine serum) (Equus caballus, UniProt P81908); experiment: Ellman's assay, butyrylcholinesterase inhibition; type: biochemical; conditions: for Grade of inhibition in% BChE: mean ± SE; for selectivity F (percent inhibition for AChE divided by percent inhibition for BChE): towards BChE
T1 construct: Butyrylcholinesterase (from equine serum) was purchased from Fluka; purchased Fluka; host or cells: equine serum
Excerpt: as §1, §2, §3, §4, §5, §6, §7, §8, §9

[3] = BChE, equine serum, Ellman's assay
[4] = BChE, equine serum, Ellman's assay, read-out: Ki (competitive inhibition)
[5] = read-out: Grade of inhibition in% BChE

T1 sequence (P81908 whole entry): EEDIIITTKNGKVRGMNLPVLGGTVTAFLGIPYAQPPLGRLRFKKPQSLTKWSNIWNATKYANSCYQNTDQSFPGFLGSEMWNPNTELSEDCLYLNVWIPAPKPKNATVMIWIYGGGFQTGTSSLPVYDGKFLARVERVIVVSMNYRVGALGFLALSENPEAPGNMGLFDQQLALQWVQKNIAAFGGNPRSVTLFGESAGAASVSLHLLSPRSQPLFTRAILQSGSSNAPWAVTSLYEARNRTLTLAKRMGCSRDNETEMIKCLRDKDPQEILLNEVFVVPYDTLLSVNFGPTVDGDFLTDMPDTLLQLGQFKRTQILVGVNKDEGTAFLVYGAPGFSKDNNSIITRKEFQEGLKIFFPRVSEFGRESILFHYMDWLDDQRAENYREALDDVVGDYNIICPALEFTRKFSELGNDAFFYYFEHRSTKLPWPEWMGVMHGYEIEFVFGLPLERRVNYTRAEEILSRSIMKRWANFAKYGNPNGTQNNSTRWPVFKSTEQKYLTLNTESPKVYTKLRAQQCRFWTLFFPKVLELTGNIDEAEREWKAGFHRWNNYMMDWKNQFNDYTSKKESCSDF
Sequence of acetylcholinesterase (AChE, electric eel) (O42275 24-633): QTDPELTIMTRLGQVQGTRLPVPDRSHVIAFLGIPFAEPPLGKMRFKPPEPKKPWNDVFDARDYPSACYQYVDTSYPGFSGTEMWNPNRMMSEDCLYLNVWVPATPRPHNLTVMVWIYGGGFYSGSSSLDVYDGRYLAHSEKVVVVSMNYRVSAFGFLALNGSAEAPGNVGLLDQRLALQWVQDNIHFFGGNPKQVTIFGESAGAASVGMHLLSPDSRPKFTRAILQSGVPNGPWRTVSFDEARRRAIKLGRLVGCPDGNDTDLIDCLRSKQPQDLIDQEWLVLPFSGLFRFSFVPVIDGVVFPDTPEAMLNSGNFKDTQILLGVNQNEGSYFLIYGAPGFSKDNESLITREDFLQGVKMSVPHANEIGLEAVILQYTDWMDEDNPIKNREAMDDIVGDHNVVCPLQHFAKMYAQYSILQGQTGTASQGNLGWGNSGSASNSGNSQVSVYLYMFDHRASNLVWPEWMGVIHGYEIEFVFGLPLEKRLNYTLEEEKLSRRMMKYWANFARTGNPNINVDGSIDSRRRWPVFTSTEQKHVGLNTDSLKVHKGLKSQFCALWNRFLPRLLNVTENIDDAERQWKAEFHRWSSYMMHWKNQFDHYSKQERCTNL

Row | SMILES | Grade of inhibition in% AChE ([1]; c = 30 µM) [%] | Grade of inhibition in% BChE ([2]; c = 30 µM) [%] | Grade of inhibition in% AChE ([1]; c = 10 µM) | Grade of inhibition in% BChE ([2]; c = 10 µM) [%] | Type of Inhibition ([2]; BChE, equine serum) | Ki′ (uncompetitive inhibition) [2, 3] [µM] | Ki [2, 4] [µM] | further results
1 | CC(=O)OC1CCC2(C)C(CCC3(C)C2CC=C2C4CC(C)(C)CCC4(C(=O)NCCN)CCC23C)C1(C)C (stereo not drawn) [Compound 12, (3β)-N-(2-Aminoethyl)-3-acetyloxy-olean-12-en-28-amide] | 31.69 ± 0.04 | 57.54 ± 0.93 |  |  |  |  |  | 
2 | CC(=O)OC1CC2(C)C(CCC3(C)C2CC=C2C4CC(C)(C)CCC4(C(=O)NCCN)CCC23C)C(C)(C)C1OC(C)=O (stereo not drawn) [Compound 13, (2α,3β)-N-(2-Aminoethyl)-2,3-diacetyloxy-olean-12-en-28-amide] |  |  | 31.91 ± 0.32% | 40.83 ± 0.21 |  |  |  | 
3 | C=C(C)C1CC[C@]2(C(=O)NCCN)CC[C@]3(C)C(CCC4[C@@]5(C)CC[C@H](OC(C)=O)C(C)(C)C5CC[C@]43C)C12 (stereo partly drawn) [Compound 14] |  |  | 56.17 ± 0.64% | 42.70 ± 1.33 |  |  |  | 
4 | CC(=O)O[C@H]1CC[C@]2(C)[C@H]3CC[C@@H]4[C@H]5[C@H](C(C)=O)CC[C@]5(C(=O)NCCN)CC[C@@]4(C)[C@]3(C)CC[C@H]2C1(C)C [Compound 15] |  |  | 44.71 ± 0.24% | 29.55 ± 2.97 | mixed-type | 17.14 ± 1.67 | 11.9 ± 1.17 | Type of Inhibition [1]: mixed-type; Ki' (uncompetitive inhibition) [1]: 6.83 ± 0.17 µM; Ki [1]: 3.06 ± 0.38 µM
5 | C[C@@H]1CC[C@]2(C(=O)NCCN)CC[C@]3(C)C(=CCC4[C@@]5(C)CC[C@H](O)C(C)(C)C5CC[C@]43C)C2[C@H]1C (stereo partly drawn) [Compound 16] |  |  | 28.54 ± 0.51% | 64.10 ± 1.04 | mixed-type | 12.15 ± 0.45 | 5.55 ± 0.12 | 
6 | CC1(C)CC[C@]2(C(=O)NCCN)CC[C@]3(C)C(=CC[C@@H]4[C@@]5(C)CC[C@H](O)C(C)(C)[C@@H]5CC[C@]43C)[C@@H]2C1 [Compound 17, (3β)-N-(2-Aminoethyl)-3-hydroxy-olean-12-en-28-amide] |  |  | 88.61 ± 0.22% | 49.10 ± 0.47 | mixed-type | 7.68 ± 0.61 | 1.93 ± 0.13 | Type of Inhibition [1]: mixed-type; Ki' (uncompetitive inhibition) [1]: 18.24 ± 0.06 µM; Ki [1]: 8.53 ± 0.34 µM
7 | CC1(C)CCC2(C(=O)NCCN)CCC3(C)C(=CCC4C5(C)CC(O)C(O)C(C)(C)C5CCC43C)C2C1 (stereo not drawn) [Compound 18, (2α,3β)-N-(2-Aminoethyl)-2,3-dihydroxy-olean-12-en-28-amide] | 39.15 ± 0.16 | 68.83 ± 1.57 |  |  |  |  |  | 
8 | C=C(C)C1CC[C@]2(C(=O)NCCN)CC[C@]3(C)C(CCC4[C@@]5(C)CC[C@H](O)C(C)(C)C5CC[C@]43C)C12 (stereo partly drawn) [Compound 19] |  |  | 62.95 ± 0.61% | 36.70 ± 5.34 |  |  |  | 
9 | CC(=O)[C@@H]1CC[C@]2(C(=O)NCCN)CC[C@]3(C)[C@H](CC[C@@H]4[C@@]5(C)CC[C@H](O)C(C)(C)[C@@H]5CC[C@]43C)[C@@H]12 [Compound 20] |  |  | 37.09 ± 0.97% | 12.98 ± 0.35 | mixed-type | > 110 | 8.37 ± 0.67 | Type of Inhibition [1]: mixed-type; Ki' (uncompetitive inhibition) [1]: 9.71 ± 0.03 µM; Ki [1]: 7.18 ± 0.02 µM
10 | CC(=O)O[C@H]1CC[C@@]2(C)C(CC[C@]3(C)C2CC=C2C4[C@@H](C)[C@H](C)CC[C@]4(C(=O)NCCN(C)C)CC[C@]23C)C1(C)C (stereo partly drawn) [Compound 21] |  |  | 10.78 ± 0.12% | 36.50 ± 0.30 | mixed-type | 143.36 ± 0.02 | 6.48 ± 0.1 | 
11 | C=C(C)C1CC[C@]2(C(=O)NCCN(C)C)CC[C@]3(C)C(CCC4[C@@]5(C)CC[C@H](OC(C)=O)C(C)(C)C5CC[C@]43C)C12 (stereo partly drawn) [Compound 24] |  |  | 13.10 ± 1.32% | 67.75 ± 0.69 | mixed-type |  |  | 
12 | CC(=O)O[C@H]1CC[C@]2(C)[C@H]3CC[C@@H]4[C@H]5[C@H](C(C)=O)CC[C@]5(C(=O)NCCN(C)C)CC[C@@]4(C)[C@]3(C)CC[C@H]2C1(C)C [Compound 25] |  |  | no inhibition | 88.49 ± 0.58 | mixed-type |  |  | 
13 | C[C@@H]1CC[C@]2(C(=O)NCCN(C)C)CC[C@]3(C)C(=CCC4[C@@]5(C)CC[C@H](O)C(C)(C)C5CC[C@]43C)C2[C@H]1C (stereo partly drawn) [Compound 26] | 33.53 ± 0.44 | 77.74 ± 0.59 |  |  | mixed-type | 3.10 ± 0.30 | 1.11 ± 0.09 | 
14 | CN(C)CCNC(=O)C12CCC(C)(C)CC1C1=CCC3C4(C)CCC(O)C(C)(C)C4CCC3(C)C1(C)CC2 (stereo not drawn) [Compound 27, (3β)-N-[2-(Dimethylamino)-ethyl]-3-hydroxy-olean-12-en-28-amide] |  |  | 5.54 ± 0.07% | 67.10 ± 0.07 | mixed-type | 9.07 ± 0.02 | 1.31 ± 0.01 | selectivity F (percent inhibition for AChE divided by percent inhibition for BChE) [2]: 0.08
15 | CN(C)CCNC(=O)[C@]12CCC(C)(C)C[C@H]1C1=CC[C@@H]3[C@@]4(C)C[C@@H](O)[C@H](O)C(C)(C)[C@@H]4CC[C@@]3(C)[C@]1(C)CC2 [Compound 28, (2α,3β)-N-[2-(Dimethylamino)-ethyl]-2,3-dihydroxy-olean-12-en-28-amide] | 13.47 ± 0.55 | 79.01 ± 0.29 |  |  | mixed-type | 27.26 ± 3.47 | 2.2 ± 0.25 | 
16 | C=C(C)C1CC[C@]2(C(=O)NCCN(C)C)CC[C@]3(C)C(CCC4[C@@]5(C)CC[C@H](O)C(C)(C)C5CC[C@]43C)C12 (stereo partly drawn) [Compound 29] | 22.12 ± 4.01 | 56.68 ± 0.01 |  |  | mixed-type | 16.11 ± 0.18 | 3.52 ± 0.07 | 
17 | CC(=O)[C@@H]1CC[C@]2(C(=O)NCCN(C)C)CC[C@]3(C)[C@H](CC[C@@H]4[C@@]5(C)CC[C@H](O)C(C)(C)[C@@H]5CC[C@]43C)[C@@H]12 [Compound 30] | 28.83 ± 0.80 | 89.76 ± 0.48 |  |  | mixed-type | 4.46 ± 0.01 | 1.12 ± 0.01 | Type of Inhibition [1]: mixed-type; Ki' (uncompetitive inhibition) [1]: 74.05 ± 4.81 µM; Ki [1]: 15.5 ± 3.91 µM
18 | CC(=O)O[C@H]1CC[C@@]2(C)C(CC[C@]3(C)C2CC=C2C4[C@@H](C)[C@H](C)CC[C@]4(C(=O)NCCN4CCCC4)CC[C@]23C)C1(C)C (stereo partly drawn) [Compound 31] |  |  | 14.54 ± 0.36% | 50.49 ± 2.23 | mixed-type | 6.00 ± 0.47 | 4.42 ± 0.34 | Ki ([2]; experimental Ki restated in docking Table 3, unit inferred, read-out: Ki): 4.42 µM
19 | CC(=O)O[C@H]1CC[C@]2(C)[C@H]3CC=C4[C@@H]5CC(C)(C)CC[C@]5(C(=O)NCCN5CCCC5)CC[C@@]4(C)[C@]3(C)CC[C@H]2C1(C)C [Compound 32, (3β)-N-(2-Pyrrolidin-1-ylethyl)-3-acetyloxy-olean-12-en-28-amide] |  |  | 7.29 ± 0.50% | 65.73 ± 0.14 | mixed-type | 29.88 ± 1.13 | 2.02 ± 0.56 | selectivity F (percent inhibition for AChE divided by percent inhibition for BChE) [2]: 0.11
20 | CC(=O)OC1CC2(C)C(CCC3(C)C2CC=C2C4CC(C)(C)CCC4(C(=O)NCCN4CCCC4)CCC23C)C(C)(C)C1OC(C)=O (stereo not drawn) [Compound 33, (2α,3β)-N-(2-Pyrrolidin-1-ylethyl)-2,3-diacetyloxy-olean-12-en-28-amide] | 23.47 ± 4.59 | 33.01 ± 2.91 |  |  |  |  |  | 
21 | COc1ccc2c3c1O[C@H]1C[C@@H](O)C=C[C@@]31CCN(C)C2 [GH, Galantamine hydrobromide, reference compound] |  |  |  |  | competitive |  |  | inhibition at 10 µM [2, 5]: 57.79 ± 0.52%; inhibition at 30 µM [2, 5]: 80.25 ± 0.33%
